From ChEMBL document CHEMBL1201862, “PubChem BioAssay data set” (2004)
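Five compound concentrations were applied to cells in 96-well plates for 48 hours; endpoints were derived by simple linear interpolation of the resulting dose-response curve. The concentration for 50% growth inhibition is given as GI50.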 Calls of active or inactive are those of the source. Cut-off read from the data, not from the text of the source: active = GI50 up to about 1.1 µM and inactive = higher.

Tests used:
Assay in all cases: NCI anticancer screen, dose series, 48 h
[1] = test system: NCI-H460
[2] = test system: HOP-62
[3] = test system: NCI/ADR-RES
[4] = test system: UACC-62
[5] = test system: HL-60
[6] = test system: SK-MEL-2
[7] = test system: SW-620
[8] = test system: DU-145
[9] = test system: NCI-H226
[10] = test system: KM12
[11] = test system: MOLT-4
[12] = test system: UO-31
[13] = test system: Hs-578T
[14] = test system: SN12C
[15] = test system: A498
[16] = test system: M14
[17] = test system: SNB-19
[18] = test system: SNB-75
[19] = test system: RPMI-8226
[20] = test system: SF-539

Measured: GI50

C=C(C)CNCCN
inactive: [1] > 100 µM | [2] > 100 µM | [3] > 100 µM | [4] > 100 µM | [5] > 100 µM | [6] > 100 µM | [7] > 100 µM | [8] > 100 µM | [9] > 100 µM | [10] > 100 µM | [11] > 100 µM | [12] > 100 µM | [13] > 100 µM | [14] > 100 µM | [15] > 100 µM | [16] > 100 µM | [17] > 100 µM

CC(=O)O[C@H]1CC[C@H]2[C@@H]3CCc4cc(O)c(I)cc4[C@H]3CC[C@]12C
inactive: [1] 12.9 µM | [3] 17.6 µM | [5] 5.21 µM | [18] 13.4 µM | [6] 19 µM | [7] 13 µM | [8] 14.8 µM | [9] 14.9 µM | [10] 12 µM | [19] 12.4 µM | [11] 4.73 µM | [12] 14 µM | [13] 14.9 µM | [20] 15.2 µM | [16] 13.6 µM | [17] 15.8 µM

[N-]=[N+]=NC1=C(c2ccccn2)C(=O)c2cccc3cccc1c23
inactive: [1] 12 µM | [2] 19.7 µM | [3] 50.8 µM | [4] 20 µM | [5] 20.7 µM | [18] 29 µM | [6] 43.5 µM | [7] 22.9 µM | [8] 39.7 µM | [10] 25.4 µM | [19] 34 µM | [11] 1.77 µM | [12] 7.48 µM | [13] 27 µM | [14] 20.8 µM | [20] 32.8 µM | [15] 5.48 µM | [16] 23.9 µM | [17] 28.6 µM

C[C@H](CO)C1=CC(C#C[Si](C)(C)C)N(C(=O)Oc2ccccc2)c2ccccc21 (stereo partly specified)
inactive: [1] 9.25 µM | [2] 6.05 µM | [3] 3.18 µM | [4] 5.3 µM | [5] 10.4 µM | [18] 6.5 µM | [6] 13.4 µM | [7] 12.4 µM | [8] 16.9 µM | [9] 15.7 µM | [10] 4.93 µM | [19] 20 µM | [11] 9.12 µM | [12] 9.27 µM | [13] 10.2 µM | [14] 12 µM | [20] 16 µM | [16] 7.69 µM | [17] 15.8 µM

COC(=O)C1CC(C=O)=C(SC)N1 (stereo unspecified)
inactive: [1] > 50 µM | [2] > 50 µM | [3] > 50 µM | [4] > 50 µM | [18] > 50 µM | [6] > 50 µM | [7] > 50 µM | [8] > 50 µM | [10] > 50 µM | [19] > 50 µM | [11] > 50 µM | [12] > 50 µM | [13] > 50 µM | [15] > 50 µM | [16] > 50 µM | [17] > 50 µM

O=NN1C(c2ccccc2)CC(=NO)CC1c1ccccc1 (stereo unspecified)
inactive: [1] > 100 µM | [2] > 100 µM | [3] > 100 µM | [4] > 100 µM | [5] 74.5 µM | [18] 88.5 µM | [6] 6.65 µM | [7] > 100 µM | [8] > 100 µM | [9] > 100 µM | [10] > 100 µM | [19] 68.1 µM | [11] 46.3 µM | [12] > 100 µM | [13] > 100 µM | [14] > 100 µM | [20] > 100 µM | [16] > 100 µM | [17] > 100 µM

CCc1nn(S(=O)(=O)c2ccc(C)cc2)c2c1CS(=O)(=O)CC2
inactive: [1] > 100 µM | [2] 84.1 µM | [3] 38.1 µM | [4] > 100 µM | [18] > 100 µM | [6] > 100 µM | [7] > 100 µM | [8] > 100 µM | [10] > 100 µM | [19] > 100 µM | [11] > 100 µM | [12] > 100 µM | [13] 28 µM | [14] > 100 µM | [20] 91.4 µM | [15] > 100 µM | [16] > 100 µM | [17] > 100 µM

Nc1nc2c(ncn2CC2CCC(CO)C2)c(=O)[nH]1 (stereo unspecified)
inactive: [2] > 100 µM | [3] > 100 µM | [4] 29.2 µM | [18] > 100 µM | [6] > 100 µM | [7] > 100 µM | [8] > 100 µM | [9] > 100 µM | [10] > 100 µM | [19] > 100 µM | [12] > 100 µM | [13] > 100 µM | [14] > 100 µM | [20] > 100 µM | [15] > 100 µM | [16] > 100 µM | [17] > 100 µM
